Reference: the supplement of paper PMC10326909

Assay: ESI positive response factor (isotope-corrected peak area per molar concentration) in SFC/ESI/HRMS (area units per M); higher = higher ionization efficiency
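Also: standards in acetonitrile/water run in triplicate on a zwitterionic HILIC column, CO2–methanol gradient containing 20 mmol/L ammonium acetate, postcolumn makeup flow, Orbitrap full-scan detection.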

| SMILES | ESI positive response factor (0.0175 µM) | ESI positive response factor (0.035 µM) | ESI positive response factor (0.0875 µM) | ESI positive response factor (0.175 µM) | ESI positive response factor (0.35 µM) | ESI positive response factor (0.875 µM) | ESI positive response factor (1.75 µM) |
| --- | --- | --- | --- | --- | --- | --- | --- |
| COC=C(C(=O)OC)c1ccccc1COc1cccc(C(F)(F)F)n1 [Picoxystrobin] | 2.81e+17 | 2.82e+17 | 2.61e+17 | 2.25e+17 | 2.47e+17 | – | – |
| NC(=O)C1(N2CCCCC2)CCN(CCCC(=O)c2ccc(F)cc2)CC1 [Pipamperone] | 4.81e+17 | 5.01e+17 | 5.44e+17 | 5.09e+17 | – | – | – |
| CC(C)C[C@H](CN)CC(=O)O [Pregabalin] | – | – | 1.96e+16 | 1.55e+16 | 1.8e+16 | 1.58e+16 | 1.57e+16 |
| CCC1(c2ccccc2)C(=O)NCNC1=O [Primidone] | 8.94e+16 | 1.09e+17 | 1.15e+17 | 9.69e+16 | 1.08e+17 | – | – |
| COC(=O)N(OC)c1ccccc1COc1ccn(-c2ccc(Cl)cc2)n1 [Pyraclostrobin] | 6.62e+17 | 5.71e+17 | 5.45e+17 | 4.73e+17 | 5.43e+17 | – | – |
| Fc1ccc(Oc2ccnc3cc(Cl)cc(Cl)c23)cc1 [Quinoxyfen] | 9.87e+17 | 1.08e+18 | 9.74e+17 | 9.43e+17 | – | – | – |
| Cc1cc2nc3c(=O)[nH]c(=O)nc-3n(CC(O)C(O)C(O)CO)c2cc1C (stereo unspecified) [Riboflavin] | – | – | – | 2.66e+15 | 3.31e+15 | 3.41e+15 | 3.53e+15 |
| O=C(O)C(c1ccccc1)C1CCCCN1 (stereo unspecified) [Ritalinic acid] | – | 1.26e+17 | 1.24e+17 | 1.12e+17 | 1.31e+17 | 1.17e+17 | 1.26e+17 |
| CC(C)NCC(O)c1ccc(NS(C)(=O)=O)cc1 (stereo unspecified) [Sotalol] | 2.28e+17 | 2.68e+17 | 2.59e+17 | – | – | – | – |
| CC(CCl)OP(=O)(OC(C)CCl)OC(C)CCl (stereo unspecified) [TCPP] | 1.59e+18 | 1.21e+18 | 1.02e+18 | 8.34e+17 | 7.91e+17 | – | – |
| O=P(OC(CCl)CCl)(OC(CCl)CCl)OC(CCl)CCl [TDCPP] | 4.09e+17 | 4.02e+17 | 3.57e+17 | – | – | – | – |
| C[C@]12CC[C@H]3[C@@H](CCC4=CC(=O)CC[C@@]43C)[C@@H]1CC[C@@H]2O [Testosteron] | 2.27e+17 | 2.44e+17 | 2.22e+17 | – | – | – | – |
| NCC1CCC(C(=O)O)CC1 (stereo unspecified) [Tranexamic acid] | – | 9.61e+16 | 6.97e+16 | 5.79e+16 | 6.32e+16 | 6.01e+16 | – |
| OCCN(CCO)CCO [Triethanolamine] | 8.84e+16 | 8.88e+16 | 8.78e+16 | 8.76e+16 | 8.66e+16 | – | – |
| COCCOCCOCCO [Triethylene glycol monomethyl ether] | 8.19e+16 | 9.98e+16 | 8.29e+16 | 7.97e+16 | – | – | – |
| COc1cc(Cc2cnc(N)nc2N)cc(OC)c1OC [Trimethoprim] | 2.88e+17 | 3.52e+17 | 3.58e+17 | 3.13e+17 | 3.46e+17 | 3.33e+17 | – |
| O=P(OCCCl)(OCCCl)OCCCl [Tris(2-chloroethyl) phosphate] | 2.68e+18 | 2.89e+18 | 2.72e+18 | – | – | – | – |
| CCCCC(=O)N(Cc1ccc(-c2ccccc2-c2nn[nH]n2)cc1)C(C(=O)O)C(C)C (stereo unspecified) [Valsartan] | 2.86e+16 | 5.36e+16 | 5.55e+16 | 5.75e+16 | 6.09e+16 | 6.04e+16 | 5.94e+16 |
| C=CC(=O)OCC[N+](C)(C)C [[2-(Acryloyloxy)ethyl]trimethylammonium] | – | 8.46e+16 | 6.97e+16 | 5.79e+16 | 6.32e+16 | 6.01e+16 | – |
| CC(O)CN(CC(C)O)CC(C)O (stereo unspecified) [triisopropanolamine] | – | 1.75e+17 | 2.93e+17 | 3.36e+17 | 3.51e+17 | – | – |
